Values quoted from earlier work, collected in US20230349886A1, “SYSTEMS AND METHODS FOR PREDICTING CARDIOTOXICITY OF MOLECULAR PARAMETERS OF A COMPOUND BASED ON MACHINE LEARNING ALGORITHMS” (UTI Limited Partnership, priority 2015, published 2023).
Like-named read-outs stand apart in the source and are kept apart here. Each block holds one compound with its values, some of them ahead of it. Peptide text beside a SMILES is read from it.

Key:
[1] = target: T1, Nav1.5 (Homo sapiens, UniProt Q14524); settings: Nav1.5 training/test/validation set; 92 actives and 860 inactive compounds; 1 = active
[2] = target: Cav1.2 (Homo sapiens, UniProt Q13936); settings: for CAV1p2-maxinhib: maximal inhibition
Chain of Cav1.2 (Q13936 1-2138 isoform Q13936-12): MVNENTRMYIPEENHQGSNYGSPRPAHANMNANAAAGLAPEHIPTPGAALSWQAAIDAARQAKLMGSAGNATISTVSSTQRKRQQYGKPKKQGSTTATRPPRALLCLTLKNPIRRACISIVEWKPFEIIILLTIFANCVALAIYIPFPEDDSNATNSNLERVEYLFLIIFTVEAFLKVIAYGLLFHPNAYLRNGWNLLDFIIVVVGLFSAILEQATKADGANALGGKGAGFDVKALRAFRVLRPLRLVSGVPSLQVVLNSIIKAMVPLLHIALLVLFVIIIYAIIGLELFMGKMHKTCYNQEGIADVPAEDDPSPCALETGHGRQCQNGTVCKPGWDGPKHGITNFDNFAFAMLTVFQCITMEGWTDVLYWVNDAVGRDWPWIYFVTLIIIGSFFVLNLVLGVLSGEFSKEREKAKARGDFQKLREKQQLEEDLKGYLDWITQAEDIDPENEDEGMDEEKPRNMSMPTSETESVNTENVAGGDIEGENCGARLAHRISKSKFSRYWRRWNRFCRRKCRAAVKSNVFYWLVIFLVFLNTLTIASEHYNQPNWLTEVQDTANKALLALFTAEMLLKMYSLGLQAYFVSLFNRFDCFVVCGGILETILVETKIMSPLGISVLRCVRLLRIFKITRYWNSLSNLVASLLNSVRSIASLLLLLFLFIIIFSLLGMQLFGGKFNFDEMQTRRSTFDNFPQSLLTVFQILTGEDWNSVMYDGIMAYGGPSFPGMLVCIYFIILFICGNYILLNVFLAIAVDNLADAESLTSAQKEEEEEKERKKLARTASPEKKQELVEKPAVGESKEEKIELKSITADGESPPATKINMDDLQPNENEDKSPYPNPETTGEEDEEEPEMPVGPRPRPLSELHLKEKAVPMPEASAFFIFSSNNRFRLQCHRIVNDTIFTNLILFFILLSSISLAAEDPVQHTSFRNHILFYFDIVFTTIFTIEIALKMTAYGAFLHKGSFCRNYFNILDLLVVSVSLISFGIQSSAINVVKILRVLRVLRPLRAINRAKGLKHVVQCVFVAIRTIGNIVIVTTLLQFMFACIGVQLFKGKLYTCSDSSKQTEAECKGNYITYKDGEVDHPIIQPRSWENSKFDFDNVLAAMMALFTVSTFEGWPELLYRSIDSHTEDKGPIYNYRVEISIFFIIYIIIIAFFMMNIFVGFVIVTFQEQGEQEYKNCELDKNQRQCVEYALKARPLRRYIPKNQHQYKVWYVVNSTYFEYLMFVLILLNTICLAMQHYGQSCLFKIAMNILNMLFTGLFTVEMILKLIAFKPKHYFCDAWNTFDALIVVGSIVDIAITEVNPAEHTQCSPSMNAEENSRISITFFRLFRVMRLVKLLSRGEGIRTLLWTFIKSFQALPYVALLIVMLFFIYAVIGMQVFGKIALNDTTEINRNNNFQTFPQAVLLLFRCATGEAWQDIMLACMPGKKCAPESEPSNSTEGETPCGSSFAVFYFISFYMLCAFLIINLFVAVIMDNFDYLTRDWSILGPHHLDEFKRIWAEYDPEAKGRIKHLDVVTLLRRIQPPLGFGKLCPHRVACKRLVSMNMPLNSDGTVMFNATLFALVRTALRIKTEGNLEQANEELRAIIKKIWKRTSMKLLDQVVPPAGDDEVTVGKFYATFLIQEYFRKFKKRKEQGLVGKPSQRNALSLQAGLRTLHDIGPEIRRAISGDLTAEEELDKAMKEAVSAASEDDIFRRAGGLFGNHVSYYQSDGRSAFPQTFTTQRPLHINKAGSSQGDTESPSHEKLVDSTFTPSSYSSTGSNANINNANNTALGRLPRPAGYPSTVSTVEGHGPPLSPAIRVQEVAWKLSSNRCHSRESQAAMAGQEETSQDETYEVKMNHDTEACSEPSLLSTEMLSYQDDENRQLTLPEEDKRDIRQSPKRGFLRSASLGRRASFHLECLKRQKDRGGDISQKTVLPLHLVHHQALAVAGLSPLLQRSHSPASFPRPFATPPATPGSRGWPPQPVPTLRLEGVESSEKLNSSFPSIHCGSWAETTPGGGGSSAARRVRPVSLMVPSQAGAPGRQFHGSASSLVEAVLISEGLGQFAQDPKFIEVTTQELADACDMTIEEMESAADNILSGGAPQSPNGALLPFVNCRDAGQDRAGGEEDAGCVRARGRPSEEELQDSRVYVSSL
Chain of Cav1.2 (Q08289 whole entry partner): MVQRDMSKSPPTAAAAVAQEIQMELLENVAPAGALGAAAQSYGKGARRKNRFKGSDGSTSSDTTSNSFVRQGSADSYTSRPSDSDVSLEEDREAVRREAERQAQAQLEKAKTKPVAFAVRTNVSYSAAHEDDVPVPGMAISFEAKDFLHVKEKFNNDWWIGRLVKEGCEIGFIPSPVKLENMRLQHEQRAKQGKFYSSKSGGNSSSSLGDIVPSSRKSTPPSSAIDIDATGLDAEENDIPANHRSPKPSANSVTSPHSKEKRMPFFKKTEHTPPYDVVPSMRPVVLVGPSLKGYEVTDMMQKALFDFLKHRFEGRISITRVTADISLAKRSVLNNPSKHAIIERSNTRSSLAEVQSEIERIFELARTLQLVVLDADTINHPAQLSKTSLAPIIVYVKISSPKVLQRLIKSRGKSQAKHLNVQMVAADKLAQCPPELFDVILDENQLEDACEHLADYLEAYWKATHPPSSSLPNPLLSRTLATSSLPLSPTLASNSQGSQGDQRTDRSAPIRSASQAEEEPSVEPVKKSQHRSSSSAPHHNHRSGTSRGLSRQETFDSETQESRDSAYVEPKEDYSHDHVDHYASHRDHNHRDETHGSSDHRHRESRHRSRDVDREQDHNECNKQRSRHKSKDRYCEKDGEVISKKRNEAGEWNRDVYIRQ
Chain of Cav1.2 (P54289 25-946 partner limits assumed): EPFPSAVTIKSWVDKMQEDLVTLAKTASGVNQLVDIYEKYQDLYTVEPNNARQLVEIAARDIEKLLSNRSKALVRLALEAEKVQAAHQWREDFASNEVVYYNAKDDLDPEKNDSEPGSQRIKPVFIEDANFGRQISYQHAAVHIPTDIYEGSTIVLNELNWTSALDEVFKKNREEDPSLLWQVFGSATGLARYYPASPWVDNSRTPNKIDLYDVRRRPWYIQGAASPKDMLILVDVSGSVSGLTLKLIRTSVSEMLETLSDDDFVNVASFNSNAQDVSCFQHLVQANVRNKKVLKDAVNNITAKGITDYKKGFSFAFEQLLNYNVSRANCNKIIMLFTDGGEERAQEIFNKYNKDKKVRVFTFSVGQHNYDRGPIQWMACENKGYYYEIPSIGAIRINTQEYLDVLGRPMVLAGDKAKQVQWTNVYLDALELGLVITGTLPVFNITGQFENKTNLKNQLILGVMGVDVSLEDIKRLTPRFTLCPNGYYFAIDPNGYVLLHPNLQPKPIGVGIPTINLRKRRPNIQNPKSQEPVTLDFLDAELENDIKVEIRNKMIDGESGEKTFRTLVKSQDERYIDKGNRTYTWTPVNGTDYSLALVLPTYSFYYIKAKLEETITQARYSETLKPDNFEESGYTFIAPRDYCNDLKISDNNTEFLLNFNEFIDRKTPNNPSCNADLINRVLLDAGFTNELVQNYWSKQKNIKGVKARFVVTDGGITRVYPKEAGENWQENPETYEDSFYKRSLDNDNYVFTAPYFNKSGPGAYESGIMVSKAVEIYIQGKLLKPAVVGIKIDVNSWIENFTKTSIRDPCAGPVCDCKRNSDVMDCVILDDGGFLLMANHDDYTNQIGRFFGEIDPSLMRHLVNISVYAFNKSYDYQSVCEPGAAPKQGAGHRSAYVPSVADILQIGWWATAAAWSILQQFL
Chain of Cav1.2 (P54289 947-1103 partner limits assumed): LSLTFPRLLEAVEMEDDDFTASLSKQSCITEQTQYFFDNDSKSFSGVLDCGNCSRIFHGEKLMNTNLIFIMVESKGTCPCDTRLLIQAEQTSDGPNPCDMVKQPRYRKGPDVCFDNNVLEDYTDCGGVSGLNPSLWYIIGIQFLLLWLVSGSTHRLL

[3] = target: T1, Nav1.5
[4] = target: Nav1.5 (Homo sapiens, UniProt Q14524, S234P/V215L)
[5] = Brown dataset; flag given as 1 or 0
[6] = for Free drug: experimental data file, Kramer et al. 2013
[7] = target: hERG (Homo sapiens, UniProt Q12809)
Chain of hERG (Q12809 whole entry): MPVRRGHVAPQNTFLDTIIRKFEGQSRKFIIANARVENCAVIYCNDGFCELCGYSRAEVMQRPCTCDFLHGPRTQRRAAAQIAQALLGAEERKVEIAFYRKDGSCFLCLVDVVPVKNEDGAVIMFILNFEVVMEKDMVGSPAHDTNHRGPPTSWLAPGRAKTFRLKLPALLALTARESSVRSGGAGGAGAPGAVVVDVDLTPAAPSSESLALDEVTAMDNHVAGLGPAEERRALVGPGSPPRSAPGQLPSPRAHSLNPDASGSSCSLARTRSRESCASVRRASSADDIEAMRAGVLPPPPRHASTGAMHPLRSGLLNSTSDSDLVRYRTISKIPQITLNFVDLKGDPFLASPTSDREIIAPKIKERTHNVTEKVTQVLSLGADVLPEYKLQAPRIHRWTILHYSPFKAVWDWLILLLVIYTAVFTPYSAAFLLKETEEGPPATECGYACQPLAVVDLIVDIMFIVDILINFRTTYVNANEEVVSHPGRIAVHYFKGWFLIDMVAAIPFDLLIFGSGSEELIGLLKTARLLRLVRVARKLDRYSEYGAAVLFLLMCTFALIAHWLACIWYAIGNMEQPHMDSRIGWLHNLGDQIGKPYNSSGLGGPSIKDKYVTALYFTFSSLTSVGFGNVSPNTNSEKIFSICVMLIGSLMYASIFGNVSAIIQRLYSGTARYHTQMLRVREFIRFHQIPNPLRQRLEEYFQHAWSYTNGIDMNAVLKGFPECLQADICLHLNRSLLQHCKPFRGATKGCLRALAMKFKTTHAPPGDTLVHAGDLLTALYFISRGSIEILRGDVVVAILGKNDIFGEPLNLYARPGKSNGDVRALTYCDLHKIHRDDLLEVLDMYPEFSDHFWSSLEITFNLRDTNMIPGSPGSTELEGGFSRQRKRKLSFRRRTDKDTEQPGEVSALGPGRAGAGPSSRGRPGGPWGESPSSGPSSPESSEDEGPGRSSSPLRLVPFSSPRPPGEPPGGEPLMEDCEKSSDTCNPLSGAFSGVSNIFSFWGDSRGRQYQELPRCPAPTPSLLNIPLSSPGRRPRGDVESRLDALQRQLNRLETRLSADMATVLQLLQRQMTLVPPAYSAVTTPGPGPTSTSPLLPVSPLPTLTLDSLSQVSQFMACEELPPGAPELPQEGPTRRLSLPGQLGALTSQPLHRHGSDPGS

[8] = experimental data, Kramer et al. 2013
[9] = maximal inhibition, Kramer et al. 2013
[10] = read-out: CAV1.2 IC50, Brown dataset
[11] = read-out: NAV1.5 IC50, Brown dataset
[12] = Brown dataset, negative log of free drug concentration

Ris (TdP risk flag) [5]: 1 | Free drug [6]: 0.035 µM | pFD ([6]; negative log of free drug): 7.456
Compound: CC(C)COCC(CN(Cc1ccccc1)c1ccccc1)N1CCCC1 (stereo not drawn) [bepridil]
CAV1.2 max inhib ([2]; Brown dataset): 95.7 | CAV1p2-maxinhib ([2]; Kramer et al. 2013): 95.7 | IC50 [3]: 2.3 µM | NAV1p5-maxinhib [3]: 100 | NAV1p5-pIC50 [3]: 5.638 | NAV1.5 max inhib [3]: 100 | NAV1.5 pIC50 [4]: 5.6382 164

Ris (TdP risk flag) [5]: 0 | Free drug [6]: 23.17 µM | pFD ([6]; negative log of free drug): 4.635
Compound: CO/N=C(\C(=O)N[C@@H]1C(=O)N2C(C(=O)O)=C(CSc3nc(=O)c(=O)[nH]n3C)CS[C@H]12)c1csc(N)n1 [ceftriaxone]
HERG maxInhib ([7]; Brown dataset): 7.5 | pIC50 ([7]; Table 11, calculated from HERG-IC50 of the Kramer et al. 2013 data): 3.351 | HERG-pIC50 [7, 8]: 3.351 | HERG-maxinhib [7, 9]: 7.5 | IC50 ([7]; read-out: HERG IC50, Brown dataset): 445 µM | IC50 ([7]; read-out: HERG-IC50, experimental data, Kramer et al. 2013): 446 µM | CAV1.2 max inhib ([2]; Brown dataset): 38.8 | CAV1p2-pIC50 [2, 8]: 3.813 | CAV1p2-maxinhib ([2]; Kramer et al. 2013): 38.8 | IC50 ([2]; read-out: CAV1p2-IC50, experimental data, Kramer et al. 2013): 154 µM | IC50 [2, 10]: 154 µM | NAV1.5 max inhib ([3]; Brown dataset): 14.3 | NAV1p5-pIC50 [3, 8]: 3.255 | NAV1p5-maxinhib [3, 9]: 14.3 | IC50 ([3]; read-out: NAV1p5-IC50, experimental data, Kramer et al. 2013): 556 µM | IC50 [3, 11]: 555 µM

Ris (TdP risk flag) [5]: 0 | pFD [6, 12]: 1.387 ^-1614
Compound: Cc1nc(Nc2ncc(C(=O)Nc3c(C)cccc3Cl)s2)cc(N2CCN(CCO)CC2)n1 [dasatinib]
HERG maxInhib ([7]; Brown dataset): 86.6 | CAV1.2 max inhib ([2]; Brown dataset): 52.2 | NAV1.5 max inhib ([3]; Brown dataset): 58.9

Ris (TdP risk flag) [5]: 1 | Free drug concentration ([6]; Brown dataset): 140 nM | pFD [6, 12]: 6.853
Compound: CCCCCCCN(CC)CCCC(O)c1ccc(NS(C)(=O)=O)cc1 (stereo not drawn) [ibutilide]
CAV1.2 max inhib ([2]; Brown dataset): 85.2 | CAV1.2 pIC50 ([2]; Brown dataset): 4.2041 | IC50 [2, 10]: 62.5 µM | NAV1.5 max inhib ([3]; Brown dataset): 87.9 | IC50 [3, 11]: 42.5 µM | NAV1.5 pIC50 ([4]; Brown dataset): 4.3716

Ris (TdP risk flag) [5]: 0 | Free drug concentration ([6]; Brown dataset): 4360 nM
Compound: O=C1NC(=O)C(c2ccccc2)(c2ccccc2)N1 [phenytoin]
HERG maxInhib [7]: 16.4 | CAV1.2 max inhib ([2]; Brown dataset): 91.7 | IC50 [2, 10]: 21.9 µM | NAV1.5 max inhib ([3]; Brown dataset): 59.3 | IC50 [3, 11]: 72.4 µM

Further lines, the compound ahead of its results:

Compound: CCCCCC=C(c1cc(Cl)c(OC)c(C(=O)O)c1)c1cc(Cl)c(OC)c(C(=O)O)c1 [CHEMBL111622]
activity [1]: 1

Compound: CC(C)[C@H](NC(=O)CN)C(=O)N[C@@H](CCC(N)=O)C(=O)O [CHEMBL123454] (H-Gly-Val-Gln-OH)
activity [1]: 1

Compound: CCCCCC=C(c1cc(C)c(OC)c(C(=O)OC)c1)c1cc(C)c(OC)c(C(=O)OC)c1 [CHEMBL335768]
activity [1]: 1

Compound: O=C(O)CCCCCC/C=C/CO [CHEMBL458520]
activity [1]: 1

Compound: NC(=S)Nc1cccc(OCCCCCN2CCN(c3ccccc3-c3ccccc3)C2=S)c1 [CHEMBL569085]
activity [1]: Found 92 actives and 860 inactive compounds. 952 CHEMBL569085 1

Compound: Fc1ccc([C@@H]2CCNC[C@H]2COc2ccc3c(c2)OCO3)cc1 [paroxetine]
HERG maxInhib ([7]; Brown dataset): 99.5 | CAV1.2 max inhib [2]: 98.5 | CAV1.2 pIC50 [2]: 5.409 393 | IC50 [2]: 3.9 µM | IC50 [3]: 9.8 µM | NAV1.5 max inhib [3]: 93.7 | NAV1.5 pIC50 [4]: 5.009 924 | Ris (TdP risk flag) [5]: 1

Compound: Cc1nc2n(c(=O)c1CCN1CCC(c3noc4cc(F)ccc34)CC1)CCCC2 [risperidone]
HERG maxInhib ([7]; Brown dataset): 79.7 | Ris (TdP risk flag) [5]: 1 | Free drug concentration ([6]; Brown dataset): 0 nM
